Assay results published in patent publication US12172992B2, “Pyrimidines for degrading Bruton's tyrosine kinase” (AbbVie Inc., priority 2022, dated 2024).

Tests used:
[1] = molecular target: BTK protein in human whole blood (Homo sapiens (Human), UniProt Q06187); experiment: Btk protein in human whole blood MSD ELISA based assay (BTK degradation); assay type: cell-based; details: 6 hours, maximum BTK degradation compared to DMSO only treated samples, read-out: hWB BTK dMax (%)
Description: Btk protein degradation was tested using an Meso Scale Discovery-ELISA system (MSD-ELISA): (1) Test compounds were added to human whole blood; (2) human whole blood cells treated with test compounds were lysed; (3) lysed cells were treated with capture antibody, an antibody to Btk; (4) lysed cells were treated with […] to Btk; and (5) lysed cells were treated with anti-mouse antibody (tagged).
Specifically, about 80 μl of fresh human whole blood from healthy donors was transferred into each well of a 96-well V-bottom plate (Costar, Cat No. 3894). Using a TECAN™ D300e Digital Dispenser (Tecan)), 1:4 serially diluted compounds [(8 pt assay) in DMSO solution (final 0.2%) starting at 3 μM top concentration], were added in duplicate. Thereafter, plates were placed in a 37° C. incubator and incubated for 6 hours.
At the end of incubation, 80 μl of 2×CST lysis buffer (Cell Signaling Technology, Cat No. 9803), prepared from a 10× stock solution, was added per well to lyse the blood. Plates were then sealed with a plate sealer and the samples were frozen overnight at −80° C.
Total amount of BTK protein remaining in the blood samples after compound treatment was measured using MSD-ELISA. After thawing the frozen plates, blood lysates were mixed thoroughly and transferred to small spot high-bind MSD plates (Meso Scale Discovery, Cat No. L45XB-3) and coated with capturing antibody, rabbit anti-human BTK (D3H5) (Cell Signaling Technology, Cat No. 8547CF). Thereafter, primary detection antibody, mouse anti-human BTK monoclonal antibody, (BD Biosciences, Cat No. 611117) and secondary detection antibody, anti-mouse SULFO-TAG (Meso Scale Discovery, Cat No. R32AC-1) were added. The assay plates were read on an MSD S600 plate reader by the addition of 2×MSD read buffer (Meso Scale Discovery, R92TC-1). All reagent transfers, including blood lysis, was conducted using a Biomed i7 liquid handler. From the dose response curves, DC50 values were calculated by averaging data from duplicate experiments. and Curve fitting was done by non-linear regression using GraphPad Prism. The DC50 values are reported in Table 2 in the hWB BTK DC50 (nM) column The Dmax values represent the maximum amount of BTK degradation observed upon compound treatment compared to DMSO only treated samples. The dMax (%) values are reported in Table 2 in the hWB BTK dMax (%) column.

BTK in mouse bone marrow = BTK in mouse bone marrow (Mus musculus (Mouse), UniProt P35991); experiment: Mouse Bone Marrow Assay (MSD ELISA of BTK degradation in bone marrow); assay type: in vivo; details: female C57BL/6J mice, single dose of Dose A, bone marrow collected after 24 hours
BTK in mouse bone marrow, sequence (P35991 whole entry): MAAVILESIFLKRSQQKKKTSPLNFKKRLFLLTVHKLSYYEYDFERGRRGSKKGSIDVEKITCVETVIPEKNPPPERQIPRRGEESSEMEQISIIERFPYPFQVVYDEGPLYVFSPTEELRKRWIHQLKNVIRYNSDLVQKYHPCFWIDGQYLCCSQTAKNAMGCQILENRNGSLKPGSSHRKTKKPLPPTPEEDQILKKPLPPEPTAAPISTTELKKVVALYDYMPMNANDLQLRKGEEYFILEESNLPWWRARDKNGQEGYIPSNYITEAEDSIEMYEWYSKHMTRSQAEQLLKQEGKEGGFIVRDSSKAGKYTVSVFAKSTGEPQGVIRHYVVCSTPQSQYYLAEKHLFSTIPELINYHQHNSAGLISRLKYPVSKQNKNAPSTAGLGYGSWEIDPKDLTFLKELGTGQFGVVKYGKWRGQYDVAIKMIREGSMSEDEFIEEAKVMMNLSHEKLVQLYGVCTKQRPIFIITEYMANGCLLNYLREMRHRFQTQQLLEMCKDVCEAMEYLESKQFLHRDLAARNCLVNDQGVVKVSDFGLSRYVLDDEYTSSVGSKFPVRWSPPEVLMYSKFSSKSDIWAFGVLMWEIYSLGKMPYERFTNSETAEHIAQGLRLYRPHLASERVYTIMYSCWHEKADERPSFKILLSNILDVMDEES
Description: Female C57BL/6J mice (Jackson Laboratories) were used for this study. Compounds or vehicle/control were prepped with EtOH; PEG-400; Phosal 53 MCT (10:30:60, v/v). Four mice were tested per compound or vehicle/control. On Day 1, mice were administered a single dose of Dose A. On Day 2 (after 24 hours), tissue (bone marrow) was collected from one hind leg per mouse.
An MSD (Meso Scale Discovery) ELISA (enzyme-linked immunosorbent assay) based assay was used to determine BTK degradation in mouse bone marrow. The following materials and equipment were used: 10% NP40 solution (nonionic polyoxyethylene surfactant, ThermoFisher, cat no. 28324); protease inhibitor mini tablet (Roche, cat no. 05 892 970 001); PhosphoSTOP™ tablet (Roche, cat no. 04 906 837 001); Pierce™ BCA Protein Assay Kit (Thermofisher, Cat No. 23225); Precellys® 2 mL lysing tube with 2.8 mm beads (VWR, cat no. 10032-756); Bertin Precellys® 24/Cryolys® cooling system; 96-well MSD streptavidin pre-coated plates (MSD, cat no. L15SA-1); MSD Blocker A (MSD, cat no. R93BA-4); capture antibody, biotinylated BTK mAb (BD Biosciences, cat no. 624008; custom order); primary detection antibody, BTK RpAb (rabbit polyclonal antibody, CST, cat no. 8547S, D3H5 clone); secondary detection antibody, anti-Rabbit-Sulfo-Tag (MSD, cat no. R32AB-1); read Buffer, 4× (MSD, cat no. R92TC-1); recombinant BTK protein (Thermofisher, cat no. PR5442A); MSD Tris Wash Buffer (10×) (MSD, cat no. R61TX-1); PBS (phosphate-buffered saline); deionized water (diH2O); Lysis Buffer [0.2% NP40 in PBS+Protease Inhibitor tablet (1 tablet/10 mL)+PhosphoSTOP tablet (1 tablet/10 mL)]; 3% MSD Blocker A [MSD Blocker A+450 mL diH2O+50 mL]; and 10×MSD Tris Wash Buffer.
Lysis buffer [(PBS+0.2% NP40+PI (protease inhibitor)+PhosphoSTOP)] was prepared and put on ice until it was fully cold. Ice cold lysis buffer […] was added to each Precellys® tube containing beads and bone marrow sample. Sample tubes were transferred into Precellys® machine and homogenized using 5000 rpm—2×20 seconds. The sample lysates were centrifuged at 14,000 rpm for 20 minutes at 4° C. after homogenizing.
The protein concentration was determined using Pierce™ BCA Protein Assay Kit following manufacturer's recommended protocol. The protein normalized working solution was prepared, using 30 μg protein per sample lysate for assay.
A 300 ng/ml working stock solution of recombinant BTK protein in lysis buffer was prepared, and the sample was serially diluted at 3-fold dilution (10-point assay, highest concentration was 300 ng/mL and lowest concentration was 0.015 ng/mL)
MSD plate coating: Coating antibody (biotinylated-BTK mAb) stock solution was prepared at 1 μg/mL in PBS buffer. 50 μL/well capture antibody (Biotinylated BTK mAb) solution was added, and the plates were shaken gently at ambient temperature for two hours. The plates were washed 3 times with 1×MSD Tris Wash Buffer in a plate washer (300 μL/well), and the plates were blocked with 3% MSD Blocker A (150 μL/well). The plates were incubated for an additional 1-2 hours at ambient temperature with gentle shaking. The plates were washed 3 times with 1×MSD wash buffer using plate washer. Bone marrow lysates (30 μg) at a final volume of 50 μL/well were added into the plates. The serially diluted standard samples were added to the same plates at a final volume of 50 μL/well. The plates were incubated overnight at 4° C. with gentle shaking.
The plates were washed three times with 1×MSD wash buffer (prepared from 10× concentration buffer) using plate washer. Primary detection antibody at 50 μL/well was added (BTK RpAb; 1:1000 dilution in 1% MSD Blocker A). The plates were incubated for two hours at ambient temperature with gentle shaking. The plates were washed three times with 1×MSD wash buffer using plate washer. Anti-Rabbit-SULFO-TAG secondary antibodies (50 μl/well) were added, 1:500 diluted in 1% MSD Blocker A, and the plates were incubated for one to two hours at ambient temperature. […]

BTK protein in human whole blood, sequence (Q06187 whole entry): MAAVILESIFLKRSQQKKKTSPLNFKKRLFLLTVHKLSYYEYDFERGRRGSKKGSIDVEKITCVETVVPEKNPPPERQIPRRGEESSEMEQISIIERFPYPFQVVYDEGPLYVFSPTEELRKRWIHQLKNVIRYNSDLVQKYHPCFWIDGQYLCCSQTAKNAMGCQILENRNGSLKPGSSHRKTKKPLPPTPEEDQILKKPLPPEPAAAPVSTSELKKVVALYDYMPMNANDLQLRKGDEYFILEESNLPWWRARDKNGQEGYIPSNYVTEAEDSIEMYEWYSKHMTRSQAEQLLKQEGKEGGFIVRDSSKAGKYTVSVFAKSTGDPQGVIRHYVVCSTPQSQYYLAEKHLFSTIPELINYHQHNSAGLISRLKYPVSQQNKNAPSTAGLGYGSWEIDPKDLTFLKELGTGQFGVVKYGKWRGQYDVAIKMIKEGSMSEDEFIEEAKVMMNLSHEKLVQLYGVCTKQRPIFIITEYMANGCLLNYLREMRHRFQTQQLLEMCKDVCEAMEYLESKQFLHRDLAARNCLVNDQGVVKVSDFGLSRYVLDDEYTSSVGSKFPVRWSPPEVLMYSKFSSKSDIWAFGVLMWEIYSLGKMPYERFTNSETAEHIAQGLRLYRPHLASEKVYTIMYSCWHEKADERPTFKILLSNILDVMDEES

| Structure (SMILES) | Dmax [1] [%] | Mouse Bone Marrow (%) (% remaining BTK, vehicle versus treated) (BTK in mouse bone marrow) |
| --- | --- | --- |
| Cc1c([C@@H](C)NC(=O)c2nc(C(C)(C)C)no2)ccc(-c2cc(Nc3ccc(N4CCN(CCc5ccc(N6CCC(=O)NC6=O)cc5)C[C@@H]4C)cn3)ncn2)c1F [Example 10, 3-tert-butyl-N-[(1R)-1-{4-[6-({5-[(2S)-4-{2-[4-(2,4-dioxo-1,3-diazinan-1-yl)phenyl]ethyl}-2-methylpiperazin-1-yl]pyridin-2-yl}amino)pyrimidin-4-yl]-3-fluoro-2-methylphenyl}ethyl]-1,2,4-oxadiazole-5-carboxamide] | 98.5 | 9 |
| C[C@@H](NC(=O)c1nc(C(C)(C)C)no1)c1ccc(-c2cc(Nc3ccc(N4CCN(CCc5ccc(N6CCC(=O)NC6=O)cc5)C[C@@H]4C)cn3)ncn2)cc1Cl [Example 14, 3-tert-butyl-N-[(1R)-1-{2-chloro-4-[6-({5-[(2S)-4-{2-[4-(2,4-dioxo-1,3-diazinan-1-yl)phenyl]ethyl}-2-methylpiperazin-1-yl]pyridin-2-yl}amino)pyrimidin-4-yl]phenyl}ethyl]-1,2,4-oxadiazole-5-carboxamide] | 99.7 | 16 |
| Cc1cc(-c2cc(Nc3ccc(N4CCN(CCc5ccc(N6CCC(=O)NC6=O)cc5)C[C@@H]4C)cc3)ncn2)ccc1[C@@H](C)NC(=O)c1nc(C(C)(C)C)no1 [Example 18] | 99.5 | 25 |

The remaining lines, values ahead:

| Dmax [1] [%] | Mouse Bone Marrow (%) (% remaining BTK, vehicle versus treated) (BTK in mouse bone marrow) | Structure (SMILES) |
| --- | --- | --- |
| 99.5 | 31 | Cc1cc(-c2cc(Nc3ccc(N4CCN(CCc5ccc(N6CCC(=O)NC6=O)cc5)CC4(C)C)cn3)ncn2)ccc1[C@@H](C)NC(=O)c1nc(C(C)(C)C)no1 [Example 9, 3-tert-butyl-N-{(1R)-1-[4-(6-{{5-(4-{2-[4-(2,4-dioxo-1,3-diazinan-1-yl)phenyl]ethyl}-2,2-dimethylpiperazin-1-yl)pyridin-2-yl}amino}pyrimidin-4-yl)-2-methylphenyl]ethyl}-1,2,4-oxadiazole-5-carboxamide] |
| 97.7 | 29 | Cc1c([C@@H](C)NC(=O)c2nc(C(C)(C)C)no2)ccc(-c2cc(Nc3ccc(N4CCN(CCc5ccc(N6CCC(=O)NC6=O)cc5)CC4)cn3)ncn2)c1F [Example 11, 3-tert-butyl-N-{(1R)-1-[4-(6-{[5-(4-{2-[4-(2,4-dioxo-1,3-diazinan-1-yl)phenyl]ethyl}piperazin-1-yl)pyridin-2-yl]amino}pyrimidin-4-yl)-3-fluoro-2-methylphenyl]ethyl}-1,2,4-oxadiazole-5-carboxamide] |
| 99.8 | 17 | Cc1cc(-c2cc(Nc3ccc(N4CCN(CCc5ccc(N6CCC(=O)NC6=O)cc5)CC4)cn3)ncn2)c(F)cc1[C@@H](C)NC(=O)c1nc(C(C)(C)C)no1 [Example 12, 3-tert-butyl-N-{(1R)-1-[4-(6-{[5-(4-{2-[4-(2,4-dioxo-1,3-diazinan-1-yl)phenyl]ethyl}piperazin-1-yl)pyridin-2-yl]amino}pyrimidin-4-yl)-5-fluoro-2-methylphenyl]ethyl}-1,2,4-oxadiazole-5-carboxamide] |
| 99 | 26 | Cc1cc(-c2cc(Nc3ccc(N4CCN(CCc5ccc(N6CCC(=O)NC6=O)cc5)C[C@@H]4C(C)C)cn3)ncn2)ccc1[C@@H](C)NC(=O)c1nc(C(C)(C)C)no1 [Example 13, 3-tert-butyl-N-[(1R)-1-{4-[6-({5-[(2S)-4-{2-[4-(2,4-dioxo-1,3-diazinan-1-yl)phenyl]ethyl}-2-(propan-2-yl)piperazin-1-yl]pyridin-2-yl}amino)pyrimidin-4-yl]-2-methylphenyl}ethyl]-1,2,4-oxadiazole-5-carboxamide] |
| 100 | 51 | Cc1cc(-c2cc(Nc3ccc(CCN4CCN(c5ccc(N6CCC(=O)NC6=O)cc5)CC4)cn3)ncn2)ccc1[C@@H](C)NC(=O)c1nc(C(C)(C)C)no1 [Example 19] |
